A word on the IC50: it is the concentration needed to halve the response being measured. For orientation: MIC means the least concentration at which growth counts as inhibited. For orientation: melting point means the temperature of the solid-liquid transition.

The text below walks through data of publication PMC9656702, “Unveiling a New Selenocyanate as a Multitarget Candidate with Anticancer, Antileishmanial and Antibacterial Potential” (Molecules, 2022).

The test system of series [1] is Leishmania major promastigotes. Description: Parasite viability MTT assay, L. major promastigotes. Format: cell-based. The note with it: Leishmania major, 48 h, promastigotes, MTT assay, mean ± SD, read-out: IC50 Leishmania major. On the procedure: (§1) The cytotoxic activities of all the derivatives against Leishmania major and Leishmania infantum promastigotes were studied by the MTT assay after exposing the parasites to five different concentrations of each compound for 48 h. Miltefosine and paromomycin, two currently available drugs for the treatment of leishmaniasis, were used as positive controls.
(§2) L. major (clone VI, MHOM/IL/80/Friendlin) and L. infantum (BCN-150) promastigotes were grown in continuous stirred M199 1X medium (Sigma, St Louis, MO, USA) at 26 °C supplemented with 25 mM HEPES (pH 7.2), 10% heat-inactivated FBS (Gibco, Gaithersburg, MD, USA), 0.1 mM adenine, 0.0005% (w/v) hemin, 0.0001% (w/v) biotin, 100 UI/mL penicillin and […] streptomycin (Gibco, Gaithersburg, MD, USA). Media were changed before each experiment to achieve exponential growth.
(§3) The antileishmanial activity was assessed by the MTT assay as previously described. Briefly, 3 × 10^6 promastigotes of both Leishmania strains were placed into a 96-well plate with supplemented M199 1X medium during their logarithmic growth phase. The parasites were treated with five increasing concentrations of the compounds ranging between 0.1 and 1000 µM at 26 °C for 48 h. At the termination point, 20 µL of MTT (5 mg/mL) was added and further incubated for 4 h. The resultant formazan crystals formed were dissolved in 80 µL of DMSO and the absorbance was measured at 550 nm on a microplate reader. IC50 values were calculated using OriginPro 8.5.1. software by nonlinear curve fitting. Miltefosine and paromomycin were used as reference drugs. Data were obtained from at least three independent experiments performed in triplicates.
In general terms: Formazan colour is commonly taken as a measure of viable cells.

For the next series, the system named is HTB-54. Nature of the series: Antiproliferative MTT assay, HTB-54 lung cancer cells. The class given is cell-based, human. The settings on record: Homo sapiens, HTB-54; MTT assay, 48 h, mean ± SD; read-out: IC50 HTB-54. On the procedure:
(§4) The antiproliferative activities of the cinnamyl and benzodioxyl derivatives were assessed against six human cell lines of three different types of cancer (colon, lung, and breast) using the 3-(4,5-dimethylthiazol-2-yl)-2,5-diphenyltetrazolium bromide (MTT) assay at seven concentrations for 48 h. The results are expressed as the IC50 values and are outlined in Table 1.
(§5) The cell lines were obtained from the American Type Culture Collection (ATCC). All the cancer cell lines (HT-29, HCT-116, H1299, HTB-54, MDA-MB-231 and MCF-7) and the nontumorigenic cells (184B5) were maintained in RPMI 1640 medium (Gibco), supplemented with 10% fetal bovine serum (FBS; Gibco) and 1% antibiotics (10.00 units/mL penicillin and 10.00 mg/mL streptomycin; Gibco). Cells were preserved in tissue culture flasks at 37 °C and 5% CO2. Culture medium was replaced every three days.
(§6) The cytotoxic effect of each compound was initially tested at seven different concentrations ranging between 0.5 and 100 µM in the cell lines mentioned above. The cells were seeded (1 × 10^4 cells per well) in 96-well plates and incubated at 37 °C and 5% CO2 for 24 h. After attachment, cells were treated with either dimethyl sulfoxide (DMSO) or increasing concentrations of the corresponding selenocompound for 48 h. The effect of the compounds on cell viability was determined by the MTT assay. In brief, 20 µL of MTT (5 mg/mL) was added to each well 2.5 h prior to experiment termination. At the end of the incubation, the medium was removed, and the formazan crystals were dissolved in 50 µL of DMSO. Absorbance was measured at 550 nm on a microplate reader. IC50 values were calculated using OriginPro 8.5.1. software by nonlinear curve fitting. Selectivity indexes were calculated as the ratio of the IC50 values determined for the nonmalignant and the tumoral cells in the breast cell lines (IC50 (184B5)/IC50 (MDA-MB-231) and IC50 (184B5)/IC50 (MCF-7)). Data were obtained from at least three independent experiments performed in triplicates.

Another series deals with S. faecalis. Description: MIC and MBC assay, S. faecalis. Format: cell-based, Streptococcus faecalis. The settings on record: Enterococcus faecalis; Gram-positive, 24 h at 37 °C; read-out: MIC S. faecalis. On the procedure: (§7) The minimum inhibitory concentration (MIC) and the minimum bactericidal concentration (MBC) values of the selenocompounds were determined in a panel of six bacterial strains as a first approach to assess their antibacterial activity. Thus, the synthesized derivatives were tested against the Gram-negative bacteria Escherichia coli (E. coli), Klebsiella pneumoniae (K. pneumoniae) and Citrobacter freundii (C. freundii); and the Gram-positive bacteria Staphylococcus aureus (S. aureus), Streptococcus faecalis (S. faecalis), and Staphylococcus epidermidis (S. epidermidis). […]
(§8) All the selenocompounds were screened for their in vitro inhibitory activity against three Gram-negative (E. coli, K. pneumoniae and C. freundii) and three Gram-positive (S. aureus, S. faecalis and S. epidermidis) bacteria. Bacterial strains were kindly provided by the Department of Microbiology and Parasitology of the University of Navarra. The bacterial cells were grown in tryptic soy agar (TSA) plates and maintained at 4 °C.
(§9) The compounds were firstly dissolved in DMSO and serially diluted in a 96-well plate in tryptic soy broth (TSB) with eleven concentrations ranging from 400 µg/mL to 0.4 µg/mL with a final volume of 100 µL. Subsequently, 100 µL of a diluted suspension of bacterial cells with an optical density of 0.125 measured at 600 nm in TSB (inoculum of approximately 10^5 CFU/mL) was added to each well and incubated at 37 °C for 24 h. After the incubation period, each well was analyzed for the presence or absence of visual growth of bacterial cells. The lowest concentration of the test compound at which no visible growth occurred was determined as the MIC values. After incubation, 10 µL of the bacterial suspension from each well that presented antibacterial activity was added to divided TSA plates and incubated at 37 °C overnight.

In series [2] the test system is Leishmania infantum promastigotes. Nature of the series: Parasite viability MTT assay, L. infantum promastigotes. The class given is cell-based. The note with it: Leishmania infantum, 48 h, promastigotes, MTT assay, mean ± SD, read-out: IC50 Leishmania infantum. On the procedure: as §1, §2, §3
Another series relates to MDA-MB-231. Nature of the series: Antiproliferative MTT assay, MDA-MB-231 breast cancer cells. The class given is cell-based, human. The note with it: Homo sapiens, MDA-MB-231; MTT assay, 48 h, mean ± SD; read-out: IC50 MDA-MB-231. The method, then: as §4, §5, §6
In a further series the test system is HT-29. Description: Antiproliferative MTT assay, HT-29 colon cancer cells. The class given is cell-based, human. The note with it: MTT assay, 48 h, mean ± SD, read-out: IC50 HT-29. On the procedure: as §4, §5, §6
Another series has as its system HCT-116. Description: Antiproliferative MTT assay, HCT-116 colon cancer cells. Format: cell-based, human. The settings on record: MTT assay, 48 h, mean ± SD, read-out: IC50 HCT-116. On the procedure: as §4, §5, §6
A further series deals with K. pneumoniae. Description: MIC and MBC assay, K. pneumoniae. Format: cell-based, Klebsiella pneumoniae. The settings on record: Klebsiella pneumoniae; Gram-negative, 24 h at 37 °C; read-out: MIC K. pneumoniae. On the procedure: as §7, §8, §9
A further series has as its system S. aureus. Description: MIC and MBC assay, S. aureus. The class given is cell-based, Staphylococcus aureus. The note with it: Staphylococcus aureus; Gram-positive, 24 h at 37 °C. On the procedure:
as §7, §8, §9

Another series deals with E. coli. Nature of the series: MIC and MBC assay, E. coli. Format: cell-based, Escherichia coli. The settings on record: Escherichia coli; Gram-negative, 24 h at 37 °C. On the procedure:
as §7, §8, §9

In another series the test system is MCF-7. Description: Antiproliferative MTT assay, MCF-7 breast cancer cells. The settings on record: MTT assay, 48 h, mean ± SD. Format: cell-based, human. On the procedure:
as §4, §5, §6

The next series has as its system S. epidermidis. Nature of the series: MIC and MBC assay, S. epidermidis. The class given is cell-based, Staphylococcus epidermidis. The settings on record: Staphylococcus epidermidis; Gram-positive, 24 h at 37 °C; read-out: MIC S. epidermidis. On the procedure:
as §7, §8, §9

The next series deals with 184B5. Description: MTT assay in nonmalignant mammary gland cells 184B5. Format: cell-based. The settings on record: nontumorigenic cells, MTT assay, 48 h, mean ± SD. On the procedure:
To assess their possible selectivity, the synthesized selenocompounds were then tested in a mammary gland (184B5) nonmalignant cell line, and the selectivity indexes (SI) were determined as the ratio of the IC50 values obtained for the nonmalignant cells and the homolog cancer cells.
as §5, §6

The next series relates to C. freundii. Nature of the series: MIC and MBC assay, C. freundii. The class given is cell-based, Citrobacter freundii. The settings on record: Citrobacter freundii; Gram-negative, 24 h at 37 °C; read-out: MIC C. freundii. On the procedure:
as §7, §8, §9

Each structure is given as a SMILES string. Read-outs that look alike come from different tables or passages of the source.

Regarding `c1cc2c(cc1C[Se][Se]Cc1ccc3c(c1)OCO3)OCO2` [Compound 2b, 1,2-Bis(benzo[d][1,3]dioxol-5-ylmethyl)diselenide], the melting point is 78 to 80 °C. In addition, the IC50 in [1] is 49.4 ± 16.7 µM. Besides, the IC50 in the series with HTB-54 amounted to 41.6 ± 9.4 µM. Further, the MIC in the series with S. faecalis is more than 200 µg/mL. Further, in series [2], the IC50 was determined as 56.1 ± 8.1 µM. For the same molecule, in the series with MDA-MB-231, the IC50 came to 46.6 ± 12.1 µM. Further, the IC50 in the series with HT-29 (Homo sapiens, HT-29, 48 h) is less than 12 µM. Moreover, the IC50 in the series with HT-29 turned out to be 10.1 ± 1.2 µM. The IC50 in the series on HCT-116 (Homo sapiens, HCT-116, 48 h) is approximately 11 µM. In the series with HCT-116, the IC50 amounted to 11.3 ± 1 µM. In the series with K. pneumoniae, the MIC is more than 200 µg/mL. Also, in the series on S. aureus, the MIC is more than 200 µg/mL. This molecule also gave an MIC in the series on E. coli of more than 200 µg/mL. The IC50 in the series with MCF-7 (Homo sapiens, MCF7, read-out: IC50 MCF-7) is more than 100 µM. Also, the “IC50 MCF-7” value in the series on MCF-7 was “completely inactive”. Further, the minimum inhibitory concentration (MIC) in the series on S. epidermidis is more than 200 µg/mL. In the series with 184B5 (Homo sapiens, 184B5, 48 h, read-out: IC50 184B5), the IC50 was more than 100 µM. For the same molecule, the “IC50 184B5” value in the series with 184B5 is listed as “did not display any activity”. Besides, in the series on C. freundii, the MIC was more than 200 µg/mL.

For the molecule `CCCCCCCCCCCCCCCCOP(=O)([O-])OCC[N+](C)(C)C` [Miltefosine, reference compound], the IC50 in series [1] came out at 66.6 ± 11.6 µM.

On to `NC[C@@H]1O[C@H](O[C@H]2[C@@H](O)[C@H](O[C@@H]3[C@@H](O)[C@H](N)C[C@H](N)[C@H]3O[C@H]3O[C@H](CO)[C@@H](O)[C@H](O)[C@H]3N)O[C@@H]2CO)[C@H](N)[C@@H](O)[C@@H]1O` [Paromomycin, reference compound], for which the IC50 in series [1] stood at 71 ± 3.3 µM; in series [2], 18 ± 1 µM.
